Results taken from ChEMBL document CHEMBL6078666, “Discovery of Novel Coumarin Pleuromutilin Derivatives as Potent Anti-MRSA Agents” (J Med Chem, 2024).
Converted amounts (≈) assume the structure as drawn.

Columns and labels:
Type in all cases: functional
[1] = system: Staphylococcus aureus; assay: Antibacterial activity against methicillin-resistant Staphylococcus aureus ATCC 33591 assessed as bacterial growth inhibition measured after 20 hrs by broth dilution method
[2] = system: Staphylococcus aureus; assay: Antibacterial activity against methicillin-resistant Staphylococcus aureus ATCC 43300 assessed as bacterial growth inhibition measured after 20 hrs by broth dilution method
[3] = system: Staphylococcus epidermidis; assay: Antibacterial activity against Staphylococcus epidermidis ATCC 51625 assessed as bacterial growth inhibition measured after 20 hrs by broth dilution method
[4] = system: Enterococcus faecium; assay: Antibacterial activity against vancomycin-resistant Enterococcus faecium ATCC 51559 assessed as bacterial growth inhibition measured after 20 hrs by broth dilution method
[5] = system: Enterococcus faecium; assay: Antibacterial activity against vancomycin-resistant Enterococcus faecium ATCC 700221 assessed as bacterial growth inhibition measured after 20 hrs by broth dilution method
[6] = system: Streptococcus pneumoniae; assay: Antibacterial activity against penicillin-resistant Streptococcus pneumoniae ATCC 51916 assessed as bacterial growth inhibition measured after 20 hrs by broth dilution method
[7] = system: Streptococcus pneumoniae; assay: Antibacterial activity against penicillin-intermediate Streptococcus pneumoniae ATCC 49619 assessed as bacterial growth inhibition measured after 20 hrs by broth dilution method
[8] = system: Staphylococcus aureus; assay: Ratio of MBC to MIC against Staphylococcus aureus ATCC 43300
[9] = system: Staphylococcus epidermidis; assay: Ratio of MBC to MIC against Staphylococcus epidermidis ATCC 51625
[10] = system: Enterococcus faecium; assay: Ratio of MBC to MIC against vancomycin-resistant Enterococcus faecium ATCC 51559
[11] = system: Enterococcus faecium; assay: Ratio of MBC to MIC against vancomycin-resistant Enterococcus faecium ATCC 700221
[12] = system: Streptococcus pneumoniae; assay: Ratio of MBC to MIC against penicillin-resistant Streptococcus pneumoniae ATCC 51916
[13] = system: Streptococcus pneumoniae; assay: Ratio of MBC to MIC against penicillin-intermediate Streptococcus pneumoniae ATCC 49619
[14] = system: Staphylococcus aureus; assay: Ratio of MBC to MIC against methicillin-resistant Staphylococcus aureus ATCC 33591
[15] = system: Staphylococcus aureus; assay: Antibacterial activity against methicillin-resistant Staphylococcus aureus clinical isolate 202311772 assessed as bacterial growth inhibition measured after 20 hrs by broth dilution method
[16] = system: Staphylococcus aureus; assay: Antibacterial activity against methicillin-resistant Staphylococcus aureus clinical isolate 202313160 assessed as bacterial growth inhibition measured after 20 hrs by broth dilution method
[17] = system: Staphylococcus aureus; assay: Antibacterial activity against methicillin-resistant Staphylococcus aureus clinical isolate 202405157 assessed as bacterial growth inhibition measured after 20 hrs by broth dilution method
[18] = system: Staphylococcus epidermidis; assay: Antibacterial activity against methicillin-resistant Staphylococcus epidermidis clinical isolate 202409454 assessed as bacterial growth inhibition measured after 20 hrs by broth dilution method
[19] = system: Staphylococcus epidermidis; assay: Antibacterial activity against methicillin-resistant Staphylococcus epidermidis clinical isolate 202409139 assessed as bacterial growth inhibition measured after 20 hrs by broth dilution method
[20] = system: Enterococcus faecium; assay: Antibacterial activity against vancomycin-resistant Enterococcus faecium clinical isolate 202308456 assessed as bacterial growth inhibition measured after 20 hrs by broth dilution method
[21] = system: Staphylococcus aureus; assay: Ratio of MBC to MIC against methicillin-resistant Staphylococcus aureus clinical isolate 202313160
[22] = system: Staphylococcus aureus; assay: Ratio of MBC to MIC against methicillin-resistant Staphylococcus aureus clinical isolate 202405157
[23] = system: Enterococcus faecium; assay: Ratio of MBC to MIC against vancomycin-resistant Enterococcus faecium clinical isolate 202308456

SMILES	MIC [1]	MIC [2]	MIC [3]	MIC [4]	MIC [5]	MIC [6]	MIC [7]	Ratio [8]	Ratio [9]	Ratio [10]	Ratio [11]	Ratio [12]	Ratio [13]	further results
C=C[C@]1(C)C[C@@H](OC(=O)CSCCOc2cc(=O)oc3ccc([N+](=O)[O-])cc23)[C@]2(C)[C@H](C)CC[C@]3(CCC(=O)[C@H]32)[C@@H](C)[C@@H]1O	0.125 µg/mL (≈ 0.199 µM)	0.125 µg/mL (≈ 0.199 µM)	0.031 µg/mL (≈ 0.0494 µM)	0.25 µg/mL (≈ 0.398 µM)	0.063 µg/mL (≈ 0.1 µM)	0.063 µg/mL (≈ 0.1 µM)	0.063 µg/mL (≈ 0.1 µM)	>4	>4	2	2	>4	2	
C=C[C@]1(C)C[C@@H](OC(=O)CSCCOc2cc(=O)oc3cc(Cl)ccc23)[C@]2(C)[C@H](C)CC[C@]3(CCC(=O)[C@H]32)[C@@H](C)[C@@H]1O	0.25 µg/mL (≈ 0.405 µM)	1 µg/mL (≈ 1.62 µM)	0.125 µg/mL (≈ 0.203 µM)	0.5 µg/mL (≈ 0.81 µM)	0.125 µg/mL (≈ 0.203 µM)	0.125 µg/mL (≈ 0.203 µM)	0.063 µg/mL (≈ 0.102 µM)	>4	>4	>4	>4	2	>4	
C=C[C@]1(C)C[C@@H](OC(=O)CSc2cc(=O)oc3ccc(C)cc23)[C@]2(C)[C@H](C)CC[C@]3(CCC(=O)[C@H]32)[C@@H](C)[C@@H]1O	0.125 µg/mL (≈ 0.226 µM)	0.125 µg/mL (≈ 0.226 µM)	0.063 µg/mL (≈ 0.114 µM)	2 µg/mL (≈ 3.62 µM)	0.25 µg/mL (≈ 0.452 µM)	0.125 µg/mL (≈ 0.226 µM)	0.25 µg/mL (≈ 0.452 µM)	>4	>4	2	4	>4	4	
C=C[C@]1(C)C[C@@H](OC(=O)CSCCOc2cc(=O)oc3ccc(F)cc23)[C@]2(C)[C@H](C)CC[C@]3(CCC(=O)[C@H]32)[C@@H](C)[C@@H]1O	0.5 µg/mL (≈ 0.832 µM)	0.5 µg/mL (≈ 0.832 µM)	0.125 µg/mL (≈ 0.208 µM)	8 µg/mL (≈ 13.3 µM)	1 µg/mL (≈ 1.66 µM)	1 µg/mL (≈ 1.66 µM)	1 µg/mL (≈ 1.66 µM)	>4	>4	4	>4		>4	
C=C[C@]1(C)C[C@@H](OC(=O)CSCCOc2cc(=O)oc3ccc(Br)cc23)[C@]2(C)[C@H](C)CC[C@]3(CCC(=O)[C@H]32)[C@@H](C)[C@@H]1O	0.25 µg/mL (≈ 0.378 µM)	1 µg/mL (≈ 1.51 µM)	0.25 µg/mL (≈ 0.378 µM)	16 µg/mL (≈ 24.2 µM)	1 µg/mL (≈ 1.51 µM)	2 µg/mL (≈ 3.02 µM)	2 µg/mL (≈ 3.02 µM)	2	>4	2	2	4	>4	Ratio [14]: >4
C=C[C@]1(C)C[C@@H](OC(=O)CSc2cc(=O)oc3cc(C)ccc23)[C@]2(C)[C@H](C)CC[C@]3(CCC(=O)[C@H]32)[C@@H](C)[C@@H]1O	0.031 µg/mL (≈ 0.0561 µM)	0.063 µg/mL (≈ 0.114 µM)	0.016 µg/mL (≈ 0.0289 µM)	0.063 µg/mL (≈ 0.114 µM)	0.031 µg/mL (≈ 0.0561 µM)		0.063 µg/mL (≈ 0.114 µM)	2	>4	2	2		>4	Ratio [14]: >4; MIC [15]: 0.031 µg/mL (≈ 0.0561 µM); MIC [16]: 0.125 µg/mL (≈ 0.226 µM); MIC [17]: 0.125 µg/mL (≈ 0.226 µM); MIC [18]: 0.063 µg/mL (≈ 0.114 µM); MIC [19]: 0.125 µg/mL (≈ 0.226 µM); MIC [20]: 0.063 µg/mL (≈ 0.114 µM); Ratio [21]: 4; Ratio [22]: 4; Ratio [23]: 2
C=C[C@]1(C)C[C@@H](OC(=O)CSCCOc2cc(=O)oc3ccc(C)cc23)[C@]2(C)[C@H](C)CC[C@]3(CCC(=O)[C@H]32)[C@@H](C)[C@@H]1O	0.25 µg/mL (≈ 0.419 µM)	0.125 µg/mL (≈ 0.209 µM)	0.125 µg/mL (≈ 0.209 µM)	0.25 µg/mL (≈ 0.419 µM)	0.125 µg/mL (≈ 0.209 µM)	0.25 µg/mL (≈ 0.419 µM)	0.063 µg/mL (≈ 0.106 µM)	>4	>4	1	>4	>4	2	
C=C[C@]1(C)C[C@@H](OC(=O)CSCCOc2cc(=O)oc3cc(C)ccc23)[C@]2(C)[C@H](C)CC[C@]3(CCC(=O)[C@H]32)[C@@H](C)[C@@H]1O	0.125 µg/mL (≈ 0.209 µM)	0.25 µg/mL (≈ 0.419 µM)	0.063 µg/mL (≈ 0.106 µM)	0.25 µg/mL (≈ 0.419 µM)	0.125 µg/mL (≈ 0.209 µM)	0.25 µg/mL (≈ 0.419 µM)	0.125 µg/mL (≈ 0.209 µM)	>4	4	1	2	4	2	
